Assay results taken from patent US11535643B2, “Macrolides with modified desosamine sugars and uses thereof” (President and Fellows of Harvard College, priority 2015, dated 2022).

Experiments:
Format in all cases: cell-based
[1] = test system: K. pneumoniae; test: Broth dilution MIC determination (CLSI) against K. pneumoniae strains; conditions: for MIC K. pneumoniae ATCC10031: ATCC10031, Strain No. MP-14
Text: (§1) Minimum inhibitory concentrations (MICs) for macrolides described herein have been determined for unique strains of S. aureus, S. pneumoniae, S. pyogenes, E. faecalis, E. coli, A. baumannii, K. pneumoniae, P. aeruginosa, and H. influenzae, including several multidrug-resistant strains, with a special focus on macrolide resistant mechanisms. Azithromycin and solithromycin were included as control compounds. CLSI standard procedures for broth dilution MIC determination were used.

[2] = test system: S. pyogenes; test: Broth dilution MIC determination (CLSI) against S. pyogenes strains; conditions: for MIC S. pyogenes ATCC19615: ATCC19615, Strain No. MP-19; for MIC S. pyogenes mac resistant: Strain No. MP-625 UNT-014
Text: as §1, with “used. Data for exemplary compounds described herein is shown in Tables M1-M7 and in Tables N1-N4.” for “used.”

[3] = test system: E. faecalis; test: Broth dilution MIC determination (CLSI) against E. faecalis strains; conditions: for MIC E. faecalis ATCC29212: ATCC29212, Strain No. MP-24; for MIC E. faecalis van resistant: Strain No. UNT-039
Text: as §1, with “used. Data for exemplary compounds described herein is shown in Tables M1-M7 and in Tables N1-N4.” for “used.”

[4] = test system: A. baumannii; test: Broth dilution MIC determination (CLSI) against A. baumannii strains; conditions: for MIC A. baumannii ATCC19606: ATCC19606, Strain No. MP-15
Text: as §1, with “used. Data for exemplary compounds described herein is shown in Tables M1-M7 and in Tables N1-N4.” for “used.”

[5] = test system: S. pneumoniae; test: Broth dilution MIC determination (CLSI) against S. pneumoniae strains; conditions: for MIC S. pneumoniae ATCC49619: ATCC49619, Strain No. MP-21
Text: as §1, with “used. Data for exemplary compounds described herein is shown in Tables M1-M7 and in Tables N1-N4.” for “used.”

[6] = test system: S. aureus; test: Broth dilution MIC determination (CLSI) against S. aureus strains; conditions: for MIC S. aureus ATCC29213: ATCC29213, Strain No. MP-12; for MIC S. aureus ATCCBAA-977: ATCCBAA-977, Strain No. MP-17; for MIC S. aureus (MRSA) GISA USA600: GISA USA600, Strain No. MP-619 UNT-120; for MIC S. aureus (MRSA) ST-228 cErm: Strain No. MP-513; for MIC S. aureus (MRSA) USA100: USA100, Strain No. MP-618 UNT-096; for MIC S. aureus (MRSA) USA300: USA300, Strain No. MP-549; for MIC S. aureus (MRSA) ermA phenotype: Strain No. MP-620 UNT-146
Text: as §1, with “used. Data for exemplary compounds described herein is shown in Tables M1-M7 and in Tables N1-N4.” for “used.”

[7] = test system: P. aeruginosa; test: Broth dilution MIC determination (CLSI) against P. aeruginosa strains; conditions: for MIC P. aeruginosa ATCC27853: ATCC27853, Strain No. MP-3; for MIC P. aeruginosa PAO1: PAO1, Strain No. MP-7; for MIC P. aeruginosa PAO1:mex: Strain No. MP-8
Text: as §1, with “used. Data for exemplary compounds described herein is shown in Tables M1-M7 and in Tables N1-N4.” for “used.”

[8] = test system: E. coli; test: Broth dilution MIC determination (CLSI) against E. coli strains; conditions: for MIC E. coli ATCC25922: ATCC25922, Strain No. MP-4; for MIC E. coli ATCC25922:tolC: Strain No. MP-9; for MIC E. coli clinical: Strain No. MP541; for MIC E. coli clinical-cErm: Strain No. MP532
Text: as §1, with “used. Data for exemplary compounds described herein is shown in Tables M1-M7 and in Tables N1-N4.” for “used.”

CCC1OC(=O)C(C)C(=O)C(C)C(OC2OC(C)CC(n3ccnc3)C2O)C(C)(OC)CC(C)CNC(C)C2N(CCCCn3cc(-c4cccc(N)c4)nn3)C(=O)OC12C (stereo not drawn) [FSM-120394]
64 µg/mL: MIC A. baumannii ATCC19606 [4]
>64 µg/mL: MIC K. pneumoniae clinical ([1]; Strain No. MP546) | MIC K. pneumoniae clinical ([1]; Strain No. MP548) | MIC E. faecalis van resistant [3] | MIC A. baumannii clinical ([4]; Strain No. MP576) | MIC A. baumannii clinical ([4]; Strain No. MP577) | MIC S. aureus ATCC29213 [6] | MIC S. aureus ATCCBAA-977 [6] | MIC S. aureus (MRSA) GISA USA600 [6] | MIC S. aureus (MRSA) ST-228 cErm [6] | MIC S. aureus (MRSA) USA100 [6] | MIC S. aureus (MRSA) USA300 [6] | MIC S. aureus (MRSA) ermA phenotype [6] | MIC P. aeruginosa ATCC27853 [7] | MIC P. aeruginosa PAO1 [7] | MIC P. aeruginosa PAO1:mex [7] | MIC E. coli ATCC25922 [8] | MIC E. coli clinical [8] | MIC E. coli clinical-cErm [8]
16 µg/mL: MIC K. pneumoniae ATCC10031 [1] | MIC E. coli ATCC25922:tolC [8]
4 µg/mL: MIC S. pyogenes mac resistant [2] | MIC E. faecalis ATCC29212 [3]
0.5 µg/mL: MIC S. pyogenes ATCC19615 [2] | MIC S. pneumoniae ATCC49619 [5] | MIC S. pneumoniae mefA ([5]; Strain No. MP-626 UNT-038)
0.25 µg/mL: MIC S. pneumoniae mefA ([5]; Strain No. MP-627 UNT-039)

CCC1OC(=O)C(C)C(=O)C(C)C(OC2OC(C)CC(NCC(=O)O)C2O)C(C)(OC)CC(C)CNC(C)C2N(CCCCn3cc(-c4cccc(N)c4)nn3)C(=O)OC12C (stereo not drawn) [FSM-120368]
8 µg/mL: MIC S. pyogenes ATCC19615 [2] | MIC S. pneumoniae mefA ([5]; Strain No. MP-627 UNT-039)
16 µg/mL: MIC S. pneumoniae ATCC49619 [5] | MIC S. pneumoniae mefA ([5]; Strain No. MP-626 UNT-038)
32 µg/mL: MIC S. pyogenes mac resistant [2]
>64 µg/mL: MIC K. pneumoniae ATCC10031 [1] | MIC K. pneumoniae clinical ([1]; Strain No. MP546) | MIC K. pneumoniae clinical ([1]; Strain No. MP548) | MIC E. faecalis ATCC29212 [3] | MIC E. faecalis van resistant [3] | MIC A. baumannii ATCC19606 [4] | MIC A. baumannii clinical ([4]; Strain No. MP576) | MIC A. baumannii clinical ([4]; Strain No. MP577) | MIC S. aureus ATCC29213 [6] | MIC S. aureus ATCCBAA-977 [6] | MIC S. aureus (MRSA) GISA USA600 [6] | MIC S. aureus (MRSA) ST-228 cErm [6] | MIC S. aureus (MRSA) USA100 [6] | MIC S. aureus (MRSA) USA300 [6] | MIC S. aureus (MRSA) ermA phenotype [6] | MIC P. aeruginosa ATCC27853 [7] | MIC P. aeruginosa PAO1 [7] | MIC P. aeruginosa PAO1:mex [7] | MIC E. coli ATCC25922 [8] | MIC E. coli ATCC25922:tolC [8] | MIC E. coli clinical [8] | MIC E. coli clinical-cErm [8]

CCC1OC(=O)C(C)C(=O)C(C)C(OC2OC(C)CC(NCC#N)C2O)C(C)(OC)CC(C)CNC(C)C2N(CCCCn3cc(-c4cccc(N)c4)nn3)C(=O)OC12C (stereo not drawn) [FSM-120369]
32 µg/mL: MIC S. aureus ATCC29213 [6] | MIC S. aureus ATCCBAA-977 [6] | MIC S. aureus (MRSA) USA300 [6]
0.5 µg/mL: MIC S. pyogenes ATCC19615 [2] | MIC S. pneumoniae ATCC49619 [5]
>64 µg/mL: MIC K. pneumoniae clinical ([1]; Strain No. MP546) | MIC K. pneumoniae clinical ([1]; Strain No. MP548) | MIC E. faecalis van resistant [3] | MIC A. baumannii ATCC19606 [4] | MIC A. baumannii clinical ([4]; Strain No. MP576) | MIC A. baumannii clinical ([4]; Strain No. MP577) | MIC S. aureus (MRSA) GISA USA600 [6] | MIC S. aureus (MRSA) ST-228 cErm [6] | MIC S. aureus (MRSA) USA100 [6] | MIC S. aureus (MRSA) ermA phenotype [6] | MIC P. aeruginosa ATCC27853 [7] | MIC P. aeruginosa PAO1 [7] | MIC P. aeruginosa PAO1:mex [7] | MIC E. coli ATCC25922 [8] | MIC E. coli ATCC25922:tolC [8] | MIC E. coli clinical [8] | MIC E. coli clinical-cErm [8]
4 µg/mL: MIC E. faecalis ATCC29212 [3]
2 µg/mL: MIC S. pyogenes mac resistant [2]
0.25 µg/mL: MIC S. pneumoniae mefA ([5]; Strain No. MP-626 UNT-038) | MIC S. pneumoniae mefA ([5]; Strain No. MP-627 UNT-039)
16 µg/mL: MIC K. pneumoniae ATCC10031 [1]
